Measured values: ChEMBL document CHEMBL1134061, “Synthesis and biological evaluations of condensed pyridine and condensed pyrimidine-based HMG-CoA reductase inhibitors” (Bioorg Med Chem Lett, 2001)

How the values were obtained:
[1] = biological target: T1, 3-hydroxy-3-methylglutaryl-coenzyme A reductase (Homo sapiens) (UniProt P04035); assay: In vitro HMG-CoA reductase inhibitory activity required to inhibit cellular steroidgenesis in Hep G2 cells (human hepatoma cell line) with pravastatin as reference compound; type: cell-based; conditions: HepG2
T1 sequence (whole entry): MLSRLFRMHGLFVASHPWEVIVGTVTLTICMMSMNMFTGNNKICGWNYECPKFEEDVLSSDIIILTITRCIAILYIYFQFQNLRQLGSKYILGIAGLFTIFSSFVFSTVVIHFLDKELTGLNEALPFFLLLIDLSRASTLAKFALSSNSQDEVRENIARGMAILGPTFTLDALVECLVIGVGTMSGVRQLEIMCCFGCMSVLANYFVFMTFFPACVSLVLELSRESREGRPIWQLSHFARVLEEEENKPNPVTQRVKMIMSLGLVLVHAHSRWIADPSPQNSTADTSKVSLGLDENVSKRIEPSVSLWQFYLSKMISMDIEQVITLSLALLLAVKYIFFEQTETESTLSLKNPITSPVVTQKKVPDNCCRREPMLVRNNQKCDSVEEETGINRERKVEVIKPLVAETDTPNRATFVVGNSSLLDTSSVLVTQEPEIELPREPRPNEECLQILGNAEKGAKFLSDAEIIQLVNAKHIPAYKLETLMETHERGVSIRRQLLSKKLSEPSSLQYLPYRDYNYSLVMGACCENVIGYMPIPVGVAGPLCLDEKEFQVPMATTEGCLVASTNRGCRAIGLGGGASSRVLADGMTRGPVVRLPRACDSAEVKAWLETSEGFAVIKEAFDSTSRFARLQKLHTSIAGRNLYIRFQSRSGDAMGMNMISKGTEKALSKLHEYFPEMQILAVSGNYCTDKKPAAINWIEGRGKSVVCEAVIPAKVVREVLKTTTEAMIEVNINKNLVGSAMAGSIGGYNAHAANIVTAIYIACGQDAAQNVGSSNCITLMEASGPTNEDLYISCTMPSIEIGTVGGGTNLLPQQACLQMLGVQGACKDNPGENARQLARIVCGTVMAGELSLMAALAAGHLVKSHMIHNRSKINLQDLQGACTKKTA

[2] = biological target: T2, 3-hydroxy-3-methylglutaryl-coenzyme A reductase (Rattus norvegicus) (UniProt P51639); assay: In vitro rat HMG-CoA reductase inhibitory activity required to inhibit sterol synthesis in cell free system with pravastatin as reference compound
T2 sequence (whole entry): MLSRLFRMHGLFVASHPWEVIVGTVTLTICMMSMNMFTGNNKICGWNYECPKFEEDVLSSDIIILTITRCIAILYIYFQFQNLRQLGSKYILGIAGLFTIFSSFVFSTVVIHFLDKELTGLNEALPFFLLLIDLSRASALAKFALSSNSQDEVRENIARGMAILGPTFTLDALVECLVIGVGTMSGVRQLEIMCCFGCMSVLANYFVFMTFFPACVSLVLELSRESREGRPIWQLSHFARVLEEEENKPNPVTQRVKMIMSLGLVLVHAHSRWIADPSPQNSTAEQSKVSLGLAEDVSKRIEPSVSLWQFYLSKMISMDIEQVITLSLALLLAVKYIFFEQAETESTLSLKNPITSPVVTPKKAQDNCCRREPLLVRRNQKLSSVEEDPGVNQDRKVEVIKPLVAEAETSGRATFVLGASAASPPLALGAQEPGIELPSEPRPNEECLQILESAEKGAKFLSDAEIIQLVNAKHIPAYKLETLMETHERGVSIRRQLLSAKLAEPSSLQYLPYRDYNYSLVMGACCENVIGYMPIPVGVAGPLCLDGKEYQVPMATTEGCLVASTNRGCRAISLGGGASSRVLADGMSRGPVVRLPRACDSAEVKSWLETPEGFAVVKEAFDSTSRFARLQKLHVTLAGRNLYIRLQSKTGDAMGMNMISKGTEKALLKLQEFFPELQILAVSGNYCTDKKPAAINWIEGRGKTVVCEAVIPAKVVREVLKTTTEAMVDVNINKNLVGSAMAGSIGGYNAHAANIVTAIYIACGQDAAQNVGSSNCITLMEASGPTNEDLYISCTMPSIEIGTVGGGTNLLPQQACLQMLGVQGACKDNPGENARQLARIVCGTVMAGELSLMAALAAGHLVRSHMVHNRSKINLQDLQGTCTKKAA

[3] = biological target: T2, 3-hydroxy-3-methylglutaryl-coenzyme A reductase (Rattus norvegicus); assay: In vivo hepatic cholesterol synthesis inhibitory activity in male Sprague-Dawley rat after oral administration at a concentration of 0.2 mg/kg; type: functional, organism-based; parameters: dose 0.2 mg/kg
[4] = biological target: T2, 3-hydroxy-3-methylglutaryl-coenzyme A reductase (Rattus norvegicus); assay: In vivo hepatic cholesterol synthesis inhibitory activity in male Sprague-Dawley rat after oral administration at a concentration of 2.0 mg/kg; type: functional, organism-based; parameters: dose 2 mg/kg

Row | Compound | Relative potency [1] | Relative potency [2] | inhibition [3] | inhibition [4]
1 | CC(C)c1nc2sc3c(c2c(-c2ccc(F)cc2)c1/C=C/[C@@H](O)C[C@@H](O)CC(=O)O)CCCC3 | 19 | 48 |  | 
2 | CCn1ncc2c(-c3ccc(F)cc3)c(/C=C/[C@@H](O)C[C@@H](O)CC(=O)O)c(C(C)C)nc21 | 39 | 71 |  | 
3 | CC(C)c1nc2c3c(nn2c(-c2ccc(F)cc2)c1/C=C/[C@@H](O)C[C@@H](O)CC(=O)O)CCCC3 | 1 | 30 |  | 
4 | CC(C)c1nc2sc3c(c2c(-c2ccc(F)cc2)c1/C=C/[C@@H](O)C[C@@H](O)CC(=O)O)CCC3 | 49 | 58 |  | 
5 | Cc1nn(Cc2ccccc2)c2nc(C(C)C)c(/C=C/[C@@H](O)C[C@@H](O)CC(=O)O)c(-c3ccc(F)cc3)c12 | 17 | 63 | 16.4% | 45.1%
6 | Cc1c2c(-c3ccc(F)cc3)c(/C=C/[C@@H](O)C[C@@H](O)CC(=O)O)c(C(C)C)nc2nn1-c1ccccc1 | 12 | 162 |  | 
7 | CC(C)c1nc2c(c(C3CC3)nn2-c2ccccc2)c(-c2ccc(F)cc2)c1/C=C/[C@@H](O)C[C@@H](O)CC(=O)O | 7 | 55 |  | 
8 | Cc1nn2c(-c3ccc(F)cc3)c(/C=C/[C@@H](O)C[C@@H](O)CC(=O)O)c(C3CC3)nc2c1-c1ccccc1 | 3 | 64 |  | 
9 | CCc1c(C)sc2nc(C(C)C)c(/C=C/[C@@H](O)C[C@@H](O)CC(=O)O)c(-c3ccc(F)cc3)c12 | 51 | 35 | 7.9% | 20.8%
10 | CC(C)c1nc2c(c(C3CC3)nn2C)c(-c2ccc(F)cc2)c1/C=C/[C@@H](O)C[C@@H](O)CC(=O)O | 1 | 42 | 42.9% | 71.3%
11 | Cc1nn(C)c2nc(C(C)C)c(/C=C/[C@@H](O)C[C@@H](O)CC(=O)O)c(-c3ccc(F)cc3)c12 | 15 | 71 | 41.1% | 48.1%
12 | Cc1noc2nc(C(C)C)c(/C=C/[C@@H](O)C[C@@H](O)CC(=O)O)c(-c3ccc(F)cc3)c12 | 1 | 170 |  | 
13 | Cc1nn(C)c2nc(C3CC3)c(/C=C/[C@@H](O)C[C@@H](O)CC(=O)O)c(-c3ccc(F)cc3)c12 | 118 | 228 | 35.5% | 74.3%
14 | Cc1cc2nc(C3CC3)c(/C=C/[C@@H](O)C[C@@H](O)CC(=O)O)c(-c3ccc(F)cc3)n2n1 | 2 | 24 |  | 6.5%
15 | Cc1nn(C(C)(C)C)c2nc(C3CC3)c(/C=C/[C@@H](O)C[C@@H](O)CC(=O)O)c(-c3ccc(F)cc3)c12 | 11 | 168 | 4.5% | 72.2%
16 | Cc1nn2c(-c3ccc(F)cc3)c(/C=C/[C@@H](O)C[C@@H](O)CC(=O)O)c(C3CC3)nc2c1C | 3 | 25 |  | 
17 | Cc1nn(-c2ccccc2)c2nc(C(C)C)c(/C=C/[C@@H](O)C[C@@H](O)CC(=O)O)c(-c3ccc(F)cc3)c12 | 1 | 264 | 3.3% | 19.9%
18 | Cc1nn(C(C)(C)C)c2nc(C(C)C)c(/C=C/[C@@H](O)C[C@@H](O)CC(=O)O)c(-c3ccc(F)cc3)c12 | 31 | 100 | 51.8% | 86%
19 | Cc1nn(-c2ccccn2)c2nc(C3CC3)c(/C=C/[C@@H](O)C[C@@H](O)CC(=O)O)c(-c3ccc(F)cc3)c12 | 4 | 229 |  | 

Row | Compound | Relative potency [1] | Relative potency [2] | inhibition [3] | inhibition [4]
20 | CC(C)c1nc2c(c(-c3ccc(Cl)cc3)nn2C)c(-c2ccc(F)cc2)c1/C=C/[C@@H](O)C[C@@H](O)CC(=O)O | 26 | 93 |  | 
21 | CC(C)c1nc2cc(-c3ccccc3)nn2c(-c2ccc(F)cc2)c1/C=C/[C@@H](O)C[C@@H](O)CC(=O)O | 3 | 12 | -1.4% | 24.1%
22 | O=C(O)C[C@H](O)C[C@H](O)/C=C/c1c(C2CC2)nc2sccc2c1-c1ccc(F)cc1 | 60 | 229 | 38.1% | 70.6%
23 | CC(C)c1nc2cc(-c3ccco3)nn2c(-c2ccc(F)cc2)c1/C=C/[C@@H](O)C[C@@H](O)CC(=O)O | < 1 | 13 |  | 
24 | CC(C)(C)n1nc(C2CC2)c2c(-c3ccc(F)cc3)c(/C=C/[C@@H](O)C[C@@H](O)CC(=O)O)c(C3CC3)nc21 | 2 | 98 |  | 
25 | Cn1nc(-c2ccccc2)c2c(-c3ccc(F)cc3)c(/C=C/[C@@H](O)C[C@@H](O)CC(=O)O)c(C3CC3)nc21 | 14 | 300 |  | 11.5%
26 | Cc1cc2nc(C(C)C)c(/C=C/[C@@H](O)C[C@@H](O)CC(=O)O)c(-c3ccc(F)cc3)n2n1 | 3 | 27 | -6.1% | 
27 | CC(C)c1nc2cc(C(C)(C)C)nn2c(-c2ccc(F)cc2)c1/C=C/[C@@H](O)C[C@@H](O)CC(=O)O | < 1 | 4 |  | 
28 | CCc1c(C)sc2nc(C3CC3)c(/C=C/[C@@H](O)C[C@@H](O)CC(=O)O)c(-c3ccc(F)cc3)c12 | 38 | 65 |  | 
29 | CC(C)c1nc2sc(-c3ccccc3)cc2c(-c2ccc(F)cc2)c1/C=C/[C@@H](O)C[C@@H](O)CC(=O)O | 1 | < 1 |  | 
30 | CC(C)c1cc2nc(C3CC3)c(/C=C/[C@@H](O)C[C@@H](O)CC(=O)O)c(-c3ccc(F)cc3)n2n1 | 1 | 6 | 21.8% | 
31 | CC(C)(C)n1nc(-c2ccccc2)c2c(-c3ccc(F)cc3)c(/C=C/[C@@H](O)C[C@@H](O)CC(=O)O)c(C3CC3)nc21 | < 1 | 75 |  | 
32 | Cc1sc2nc(C(C)C)c(/C=C/[C@@H](O)C[C@@H](O)CC(=O)O)c(-c3ccc(F)cc3)c2c1-c1ccccc1 | < 1 | 1 |  | 
33 | CC(C)c1nc2c(cnn2-c2ccccc2)c(-c2ccc(F)cc2)c1/C=C/[C@@H](O)C[C@@H](O)CC(=O)O | 10 | 228 |  | 
34 | O=C(O)C[C@H](O)C[C@H](O)/C=C/c1c(C2CC2)nc2sc3c(c2c1-c1ccc(F)cc1)CCCCC3 | 2 | 23 |  | 
35 | COc1ccc(-n2nc(C)c3c(-c4ccc(F)cc4)c(/C=C/[C@@H](O)C[C@@H](O)CC(=O)O)c(C(C)C)nc32)cc1 | 149 | 154 |  | 48.7%
36 | Cc1cc2c(-c3ccc(F)cc3)c(/C=C/[C@@H](O)C[C@@H](O)CC(=O)O)c(C(C)C)nc2s1 | 22 | 68 |  | 34.2%
37 | O=C(O)C[C@H](O)C[C@H](O)/C=C/c1c(C2CC2)nc2sc3c(c2c1-c1ccc(F)cc1)CCC3 | 60 | 63 |  | 
38 | CC(C)c1cc2c(-c3ccc(F)cc3)c(/C=C/[C@@H](O)C[C@@H](O)CC(=O)O)c(C(C)C)nc2s1 | 62 | 52 |  | 
